The results in this text go back to ChEMBL document CHEMBL1201862, “PubChem BioAssay data set” (2004).

Among the test systems are 786-0; A549; COLO 205; HCC 2998; K562; M14; MCF7; MDA-MB-435; MDA-N; Malme-3M; NCI-H226; OVCAR-5; SF-268; SF-539; SK-MEL-5; SK-OV-3; SR; T47D; CAKI-1; A498.
What all share (experiment): DTP human tumour cell line panel, 48 h

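1) Cells in 96-well plates. 2) Compound, 48 h, 5 concentrations. 3) Linear interpolation between surrounding doses. 4) Unreached endpoint = highest concentration. GI50 = concentration required for 50% inhibition of growth.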 The source made the active and inactive calls. Rule as the data show it: active = GI50 up to about 1.1 µM and inactive = higher.

The term GI50 denotes the concentration at which growth is held to half of that of the control. Regarding `Cc1c2c(nc3ccccc13)C(=O)c1cccnc1C2=O`, the GI50 with 786-0 is 33.3 µM (inactive); in the test on A549, 1.66 µM (inactive); in the test on COLO 205 it was 17.1 µM (inactive); in the test on HCC 2998, 7.62 µM (inactive); in the test on K562, 20 µM (inactive); with M14, 6.52 µM (inactive). Besides, the GI50 was 4.89 µM (inactive) in the test with MCF7; 1.79 µM (inactive) in the test on MDA-MB-435; 1.77 µM (inactive) in the test on MDA-N; 1.29 µM (inactive) in the test on Malme-3M; 18.9 µM (inactive) in the test on NCI-H226; 60.4 µM (inactive) in the test with OVCAR-5. For the same compound, the GI50 is 25.2 µM (inactive) in the test on SF-268; 5.41 µM (inactive) with SF-539; 0.381 µM (active) in the test with SK-MEL-5; > 100 µM (inactive) in the test on SK-OV-3; 6.5 µM (inactive) in the test with SR; 26.7 µM (inactive) with T47D.
As for `CCN1/C(=C/C#C/C(C)=C\c2sc3ccc(Cl)cc3[n+]2CC)Sc2ccc(Cl)cc21`, the GI50 was 3.1 µM (inactive) with 786-0; 3.57 µM (inactive) with A549; 2.82 µM (inactive) in the test with CAKI-1; 1.66 µM (inactive) in the test on COLO 205; 4.07 µM (inactive) in the test on HCC 2998; 0.552 µM (active) in the test with K562. Also, the GI50 with M14 is 3.62 µM (inactive); in the test with MCF7, 3.73 µM (inactive); with MDA-MB-435, 2.94 µM (inactive); in the test with MDA-N, 3.13 µM (inactive); in the test on Malme-3M, 1.85 µM (inactive); in the test with NCI-H226 it was 3.82 µM (inactive). The GI50 in the test with OVCAR-5 was 7.94 µM (inactive); in the test with SF-268, 5.22 µM (inactive); in the test on SF-539 it was 3.57 µM (inactive); in the test with SK-MEL-5, 2.09 µM (inactive); with SK-OV-3, 5.55 µM (inactive); with SR, 0.668 µM (active). Further, the GI50 in the test with T47D is 2.9 µM (inactive).
For `CC1(C)CCCCCCCCCC2CC2CCC(C)(C)C1=O` (stereo not drawn), the GI50 in the test with 786-0 was 17.2 µM (inactive); with A498, 37.4 µM (inactive); in the test on A549, 22.9 µM (inactive); in the test with CAKI-1, 33.5 µM (inactive); in the test on COLO 205, 18.5 µM (inactive); in the test on K562, 15.6 µM (inactive). In addition, the GI50 was 18.8 µM (inactive) in the test on M14; 16.4 µM (inactive) in the test with MCF7; 23 µM (inactive) in the test with MDA-MB-435; 30.9 µM (inactive) with MDA-N; 21 µM (inactive) in the test on Malme-3M; 14.2 µM (inactive) in the test on NCI-H226. Also, the GI50 in the test with OVCAR-5 was 21.2 µM (inactive); in the test on SF-268, 22.4 µM (inactive); in the test with SF-539, 18.8 µM (inactive); in the test on SK-MEL-5 it was 22.8 µM (inactive); with SK-OV-3 it was 34 µM (inactive); in the test with SR, 6.59 µM (inactive). Besides, in the test on T47D, the GI50 is 18.9 µM (inactive).
Consider `CC1CC(=O)N(N(C)C)C2(C#N)C(=O)N=C(N)C12C#N` (stereo not drawn), for which the GI50 with 786-0 was > 100 µM (inactive); in the test with A498, > 100 µM (inactive); in the test with A549 it was > 100 µM (inactive); with CAKI-1, 23.4 µM (inactive); in the test with COLO 205, 38.7 µM (inactive); in the test with HCC 2998, > 100 µM (inactive). Further, the GI50 was 27.2 µM (inactive) in the test on K562; > 100 µM (inactive) in the test on M14; > 100 µM (inactive) with MCF7; > 100 µM (inactive) in the test with MDA-MB-435; > 100 µM (inactive) in the test on MDA-N; > 100 µM (inactive) with Malme-3M. In addition, the GI50 with OVCAR-5, in the test with SF-268, in the test on SF-539, in the test on SK-MEL-5, in the test on SK-OV-3 and in the test on SR was > 100 µM (inactive) in each case. The GI50 with T47D was > 100 µM (inactive).
Regarding `O=[N+]([O-])c1cccc(/C=N/N=c2\ccc3ccccc3[nH]2)c1O`, the GI50 with 786-0 is 0.658 µM (active); with A498, 5.68 µM (inactive); with A549 it was 2.4 µM (inactive); in the test on CAKI-1 it was 0.665 µM (active); in the test on COLO 205, 2.21 µM (inactive); with K562, 1.35 µM (inactive). Besides, the GI50 in the test on M14 is 1.13 µM (inactive); in the test with MCF7, 1.94 µM (inactive); in the test with MDA-MB-435, 2.45 µM (inactive); with MDA-N, 5.64 µM (inactive); in the test on Malme-3M it was 1.88 µM (inactive); in the test with NCI-H226, 2.64 µM (inactive). For the same compound, the GI50 in the test with OVCAR-5 was 3.08 µM (inactive); in the test with SF-268 it was 1.14 µM (inactive); in the test on SF-539, 1.84 µM (inactive); with SK-MEL-5, 0.984 µM (active); with SK-OV-3, 1.86 µM (inactive); in the test on SR it was 0.466 µM (active). In addition, in the test on T47D, the GI50 is 0.807 µM (active).
Turning to `Cc1nc(N)c(N2CCN(Cc3ccccc3)CC2)c(O)n1`, the GI50 in the test on 786-0, in the test on A498, in the test with A549, in the test with COLO 205, in the test on HCC 2998 and in the test on K562 was > 100 µM (inactive) each time. The GI50 in the test with M14, in the test on MCF7, with MDA-MB-435, in the test with MDA-N, in the test on Malme-3M and in the test on NCI-H226 was > 100 µM (inactive) each time. The GI50 in the test on OVCAR-5, in the test with SF-268, in the test on SF-539, with SR and in the test with T47D was > 100 µM (inactive) in each case.
As for `COP(=O)(OC)[C@@](O)(c1ccccc1)[C@@H](O)[C@@H](O)c1ccccc1`, the GI50 in the test on 786-0 was 64.6 µM (inactive); with A498, > 100 µM (inactive); in the test with A549, > 100 µM (inactive); in the test with CAKI-1, > 100 µM (inactive); in the test with COLO 205 it was > 100 µM (inactive); with M14 it was > 100 µM (inactive). Also, the GI50 is 27.6 µM (inactive) with MCF7; > 100 µM (inactive) in the test on MDA-MB-435; 85.3 µM (inactive) in the test on MDA-N; > 100 µM (inactive) in the test with Malme-3M; > 100 µM (inactive) in the test with NCI-H226; > 100 µM (inactive) in the test on OVCAR-5. The GI50 in the test with SF-268 is > 100 µM (inactive); in the test with SF-539 it was 33.7 µM (inactive); in the test on SK-MEL-5 it was > 100 µM (inactive); in the test with SK-OV-3, > 100 µM (inactive); in the test with SR, 0.531 µM (active); in the test with T47D, > 100 µM (inactive).
Consider `CC(=O)OC12OC(C)(C3C(=O)N(c4ccccc4)C(=O)C31)N(c1ccccc1)C2=O` (stereo not drawn), for which the GI50 was > 100 µM (inactive) with 786-0; > 100 µM (inactive) in the test on A549; > 100 µM (inactive) with CAKI-1; > 100 µM (inactive) in the test with COLO 205; 51.6 µM (inactive) in the test with HCC 2998; > 100 µM (inactive) with K562. Besides, the GI50 in the test on M14, in the test with MCF7, with MDA-MB-435, in the test with MDA-N, in the test with Malme-3M and in the test with NCI-H226 was > 100 µM (inactive) in each case. In addition, the GI50 with OVCAR-5, with SF-268, in the test on SF-539, in the test on SK-MEL-5, in the test on SK-OV-3 and in the test on SR was > 100 µM (inactive) in each case. Besides, the GI50 in the test on T47D is > 100 µM (inactive).
